From PubChem BioAssay (NCI)
Several values for one entry are separate records, joined by “and”; a condition that tells them apart may be missing. Identical values can stand only once.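 Assay format: 96-well plates, 48-hour exposure. At the GI50, growth is halved. TGI is the concentration that stops growth completely.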

Assays:
Assay in all cases: inhibition of tumour cell growth, NCI panel, 48 h
CCRF-CEM leukemia = tested on: CCRF-CEM leukemia
COLO 205 colon = tested on: COLO 205 colon
HCT-15 colon = tested on: HCT-15 colon
NCI/ADR-RES ovarian = tested on: NCI/ADR-RES ovarian
OVCAR-4 ovarian = tested on: OVCAR-4 ovarian
OVCAR-5 ovarian = tested on: OVCAR-5 ovarian
PC-3 prostate = tested on: PC-3 prostate
SF-539 CNS = tested on: SF-539 CNS
U251 CNS = tested on: U251 CNS
MDA-MB-435 = tested on: MDA-MB-435

SMILES | TGI (CCRF-CEM leukemia) | TGI (COLO 205 colon) | TGI (HCT-15 colon) | TGI (NCI/ADR-RES ovarian) | TGI (OVCAR-4 ovarian) | TGI (OVCAR-5 ovarian) | TGI (PC-3 prostate) | TGI (SF-539 CNS) | TGI (U251 CNS) | GI50 (CCRF-CEM leukemia) | GI50 (COLO 205 colon) | GI50 (HCT-15 colon) | GI50 (OVCAR-4 ovarian) | GI50 (SF-539 CNS) | GI50 (U251 CNS) | GI50 (MDA-MB-435) | TGI (MDA-MB-435) | GI50 (OVCAR-5 ovarian) | GI50 (PC-3 prostate) | GI50 (NCI/ADR-RES ovarian)
CC(C)C1CN1CC(O)Cn1ccnc1[N+](=O)[O-] (stereo not given) | > 100 µM | > 100 µM | > 100 µM | > 100 µM | > 100 µM | > 100 µM | > 100 µM | > 100 µM | > 100 µM | – | – | – | – | – | – | – | – | – | – | –
COC(=O)c1cnc2nc(N3CCOCC3)[nH]n2c1=O | > 100 µM | > 100 µM | > 100 µM | – | > 100 µM | > 100 µM | – | > 100 µM | > 100 µM | – | – | – | – | – | – | – | – | – | – | –
COc1cc(OC)cc(N2CCC(c3c(N)nc(N)nc3Cl)CC2)c1 | > 100 µM | > 100 µM | > 100 µM | – | > 100 µM | > 100 µM | – | – | – | – | – | – | – | – | – | – | – | – | – | –
O=C(NC1CCCCC1)c1c(O)[nH]c(=S)[nH]c1=O | > 100 µM | > 100 µM | > 100 µM | – | > 100 µM | > 100 µM | – | > 100 µM | > 100 µM | – | – | – | – | – | – | – | – | – | – | –
CC(=O)[CH-]C(=O)c1ccccc1.CC(=O)[CH-]C(=O)c1ccccc1.[Nd+3].[OH-].[OH3+] | > 100 µM | > 100 µM | > 100 µM | – | > 100 µM | – | – | > 100 µM | > 100 µM | > 100 µM | > 100 µM | > 100 µM | > 100000 nM | > 100000 nM | > 100000 nM | – | – | – | – | –
C[C@]12CC[C@H](O)CC1=CC[C@@H]1[C@@H]2CC[C@]2(C)C(=O)/C(=C/c3cccc(OCCCn4ccnc4)c3)C[C@@H]12 | > 100 µM | 45.8 µM | 40.4 µM | – | 64.6 µM | 34.8 µM | 39.8 µM | 35.5 µM | 77.3 µM | 16.4 µM | 20.3 µM | 16.8 µM | 19600 nM | 18700 nM | 24800 nM | 36800 nM | > 100 µM | 18.1 µM | 15.6 µM | –
COc1ccc(-c2cc3c4c(nc5ccccc5c4c2)CC(c2cc(OC)c(OC)c(OC)c2)O3)cc1 (stereo not given) | > 100 µM | – | > 100 µM | 47.3 µM | – | – | – | 2.95 µM | 4.83 µM | > 100 µM | – | 3.73 µM | – | 1440 nM | 1760 nM | 2990 nM | 13.7 µM | – | – | 3.03 µM
O=c1/c(=C/c2cccc3ccccc23)sc2nc3ccccc3n12 | – | > 100 µM | > 100 µM | – | > 100 µM | > 100 µM | – | > 100 µM | > 100 µM | – | – | – | – | – | – | – | – | – | – | –
COc1ccc(CC(=O)c2cc(OC)c(OC)cc2C)cc1OC | > 100 µM | > 100 µM | > 100 µM | – | > 100 µM | > 100 µM | – | – | > 100 µM | – | – | – | – | – | – | – | – | – | – | –
CCOC(=O)C1NCCc2c1[nH]c1ccccc21 (stereo not given) | > 10 µM | > 10 µM | > 10 µM | – | > 10 µM | – | > 10 µM | – | – | – | – | – | – | – | – | – | > 10 µM | – | – | –
Nc1nc2ncn(CCO)c2c(=O)[nH]1 | > 100 µM | > 100 µM | > 100 µM | – | – | > 100 µM | – | > 100 µM | > 100 µM | – | – | – | – | – | – | – | – | – | – | –
c1ccc2c(c1)O[As](O[As]1Oc3ccccc3O1)O2 | 10.8 µM | 20.2 µM | 17 µM | > 100 µM | 19.7 µM | 22.2 µM | – | 6.27 µM | 4.43 µM | 0.434 µM | 5.42 µM | 2.33 µM | 2490 nM | 1840 nM | 1350 nM | 2800 nM | 13.9 µM | 5.01 µM | – | 3.58 µM
CC(=O)O[C@]1(C(C)=O)CC[C@H]2[C@@H]3C[C@H](C)C4=CC(=O)C=C[C@]4(C)[C@@]3(F)[C@@H](O)C[C@@]21C | > 100 µM | > 100 µM | > 100 µM | – | 90.8 µM | > 100 µM | – | > 100 µM | > 100 µM | – | – | – | – | – | – | – | – | – | – | –
CCCCN(CC)C(=O)C(=O)C1C(=O)Nc2ccccc2S1=O (stereo not given) | > 100 µM | > 100 µM | > 100 µM | – | > 100 µM | > 100 µM | – | > 100 µM | > 100 µM | – | – | – | – | – | – | – | – | – | – | –
CS(=O)(=O)C1S(=O)(=O)OCCOS1(=O)=O | – | > 100 µM | – | – | > 100 µM | > 100 µM | – | > 100 µM | > 100 µM | – | – | – | – | – | – | – | – | – | – | –
COc1ccc(CNc2cc(OC)cc(OC)c2)cc1 | > 100 µM | > 100 µM | > 100 µM | – | > 100 µM | > 100 µM | – | > 100 µM | > 100 µM | 78.7 µM and 28.6 µM | – | > 100 µM and 46.6 µM | – | > 90200 nM | – | – | – | > 78.1 µM | – | –
CCCOC(=O)N[C@H]1CCc2c(Br)c(OC)c(OC)c(OC)c2-c2ccc(SC)c(=O)cc21 | > 51.2 µM | – | > 36 µM | > 57.4 µM | > 100 µM | 34.5 µM | > 100 µM | 0.0688 µM | 15.1 µM | 0.0274 µM | – | 0.0218 µM | 158 nM | 21.3 nM | 36.3 nM | < 10 nM | 0.0189 µM | 0.0501 µM | 0.0197 µM | 0.0345 µM
OCC(O)CC[CH2][Sn]([c]1ccccc1)([c]1ccccc1)[c]1ccccc1 (stereo not given) | 41.6 µM | 35.3 µM | 26.8 µM | – | 32.2 µM | 28.3 µM | – | 32.5 µM | 30.2 µM | 13.7 µM | 19.5 µM | 12.7 µM | 16500 nM | 17200 nM | 15600 nM | – | – | 14.9 µM | – | –
CC1OCC2OC(C)OC(C3C4=C(CC(C)(C)CC4=O)OC4=C3C(=O)CC(C)(C)C4)C2O1 (stereo not given) | > 100 µM | > 100 µM | > 100 µM | > 100 µM | – | > 100 µM | > 100 µM | > 100 µM | – | – | – | – | – | – | – | – | > 100 µM | – | – | –
N#C/C(=C\c1ccc(CP(=O)(O)O)cc1)C(N)=O | > 100 µM | > 100 µM | > 100 µM | – | > 100 µM | > 100 µM | – | > 100 µM | > 100 µM | – | – | – | – | – | – | – | – | – | – | –
O=C(O)CSc1n[nH]c(/C=C/c2ccccc2)n1 | > 100 µM | > 100 µM | > 100 µM | – | > 100 µM | > 100 µM | – | > 100 µM | > 100 µM | – | – | – | – | – | – | – | – | – | – | –
COc1cc2c(-c3nc4cc(Cl)c(F)cc4s3)cc(=O)oc2c(C)c1OC | – | 3.32 µM | – | – | 3.16 µM | 3.39 µM | – | 0.379 µM | 2.66 µM | – | 1.66 µM | – | 1650 nM | 183 nM | 1290 nM | 1770 nM | 3.76 µM | 1.8 µM | – | –
Cc1c(/C=C2\CC/C(=C\c3[nH]c(C(=O)OC(C)(C)C)c(C)c3C)C2=O)[nH]c(C(=O)OC(C)(C)C)c1C | > 100 µM | > 100 µM | > 100 µM | – | > 100 µM | > 100 µM | – | > 100 µM | > 100 µM | – | – | – | – | – | – | – | – | – | – | –
